Legend:
[1] = molecular target: Neuraminidase (Influenza A virus (A/Puerto Rico/8/1934(H1N1)), UniProt P03468); assay: In vitro inhibitory activity against influenza A neuraminidase using enzymatic assay
Influenza B virus = assay: In vitro inhibitory activity against influenza B neuraminidase using enzymatic assay; assay type: functional

Sequence of Neuraminidase (Influenza A virus (A/Puerto Rico/8/1934(H1N1)), UniProt P03468) (P03468 whole entry): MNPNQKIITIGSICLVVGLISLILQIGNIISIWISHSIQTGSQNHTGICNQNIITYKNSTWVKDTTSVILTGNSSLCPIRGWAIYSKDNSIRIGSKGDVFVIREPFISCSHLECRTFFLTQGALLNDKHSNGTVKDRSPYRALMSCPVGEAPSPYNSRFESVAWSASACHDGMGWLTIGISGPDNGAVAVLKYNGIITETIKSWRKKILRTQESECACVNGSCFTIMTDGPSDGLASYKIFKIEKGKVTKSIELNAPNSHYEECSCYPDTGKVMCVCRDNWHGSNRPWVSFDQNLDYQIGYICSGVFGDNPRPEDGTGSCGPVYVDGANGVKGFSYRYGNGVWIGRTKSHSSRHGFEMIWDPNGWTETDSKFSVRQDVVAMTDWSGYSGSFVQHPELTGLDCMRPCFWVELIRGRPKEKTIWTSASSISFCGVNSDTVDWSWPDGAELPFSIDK

Structure (SMILES) | IC50 [1] [µM] | IC50 (Influenza B virus) [µM]
CC[C@@H](CCO)O[C@@H]1C=C(C(=O)O)C[C@H](N)[C@H]1NC(C)=O | 0.03 | 0.085
CC[C@H](CCO)O[C@@H]1C=C(C(=O)O)C[C@H](N)[C@H]1NC(C)=O | 0.04 | 0.4
CCC(CC)O[C@@H]1C=C(C(=O)O)C[C@H](N)[C@H]1NC(C)=O [OSELTAMIVIR CARBOXYLATE] | – | 0.004
CC[C@@H](CC(=O)O)O[C@@H]1C=C(C(=O)O)C[C@H](N)[C@H]1NC(C)=O | 0.45 | –
CC[C@H](CC(=O)O)O[C@@H]1C=C(C(=O)O)C[C@H](N)[C@H]1NC(C)=O | 1.15 | –

— ChEMBL document CHEMBL1132511, “Stereospecific synthesis of a GS 4104 metabolite: determination of absolute stereochemistry and influenza neuraminidase inhibitory activity” (Bioorg Med Chem Lett, 1999)
